From US11618747B2, “LXR modulators with bicyclic core moiety” (OrsoBio, Inc., priority 2018, dated 2023)

Experiments:
[1] = target: T1, LXRβ ligand-binding domain (Homo sapiens, UniProt P55055, DUP175-175); test: TR-FRETβ activity assay (NCoA3 coactivator peptide recruitment); assay type: biochemical; conditions: TR-FRET, 1 μM 24(S)-25-epoxycholesterol prestimulation; read-out: FRETβ (EC50 range)
T1 construct: amino acids 156-461; NP009052; made in house; host or cells: E. coli
T1 sequence (P55055 with tags, fused parts or gaps DUP175-175 limits assumed): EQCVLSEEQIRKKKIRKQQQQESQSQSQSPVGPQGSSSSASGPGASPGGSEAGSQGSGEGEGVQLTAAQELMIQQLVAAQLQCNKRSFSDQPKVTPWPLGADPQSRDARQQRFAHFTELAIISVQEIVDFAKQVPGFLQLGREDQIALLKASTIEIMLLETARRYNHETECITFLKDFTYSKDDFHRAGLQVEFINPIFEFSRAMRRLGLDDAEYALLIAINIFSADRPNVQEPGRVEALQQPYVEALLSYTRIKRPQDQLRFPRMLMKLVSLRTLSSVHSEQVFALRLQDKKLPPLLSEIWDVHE
Procedure, shortened: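 Inverse agonism assessed by loss of coactivator recruitment, read as TR-FRET 665/615 nm after 1 h equilibration at 4 °C, in triplicate. Ten-point titration from 50 μM to 0.002 μM against LXRβ LBD (76 nM, GST fusion) prestimulated with 1 μM 24(S)-25-epoxycholesterol, with 400 nM NCoA3 peptide, pH 6.8. Sulfonyl acetic acids kept as 20 mM DMSO stocks with 100 mM TFA.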

full length (FL) LXRα = target: T2, full length (FL) LXRα (Homo sapiens, UniProt Q13133); test: LXR Gal4 reporter transient transfection assay (FL-M2H Gal4α); assay type: cell-based; conditions: HEK293 cells, full length LXRα; read-out: FL-M2H Gal4α (EC50 range)
T2 construct: the full length (FL) proteins of LXRα (amino acids 1-447); NP005684; expressed in transfected cells; host or cells: HEK293
T2 sequence (Q13133 1-447): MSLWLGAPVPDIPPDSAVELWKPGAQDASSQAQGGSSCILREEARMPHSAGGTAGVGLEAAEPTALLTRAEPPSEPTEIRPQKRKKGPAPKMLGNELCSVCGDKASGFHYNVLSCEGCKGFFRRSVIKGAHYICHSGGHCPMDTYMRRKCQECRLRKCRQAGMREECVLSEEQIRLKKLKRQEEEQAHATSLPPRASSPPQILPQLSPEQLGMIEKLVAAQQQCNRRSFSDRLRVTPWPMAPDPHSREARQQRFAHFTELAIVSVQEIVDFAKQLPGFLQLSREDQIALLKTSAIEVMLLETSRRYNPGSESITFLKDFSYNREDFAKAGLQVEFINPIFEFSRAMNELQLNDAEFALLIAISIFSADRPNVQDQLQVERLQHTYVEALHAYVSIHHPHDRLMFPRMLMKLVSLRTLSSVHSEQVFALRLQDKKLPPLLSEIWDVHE
Procedure, shortened: (§1)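 Mammalian two-hybrid in HEK293: AD-LXR (FL or LBD) + BD-cofactor (SRC1 coactivator or NCoR corepressor domain), pFR-Luc reporter, pRL-CMV normaliser; PEI transfection. Compound added 4 h later (DMSO ≤0.2% final), 16 h incubation at 37 °C. Firefly/Renilla luminescence measured sequentially in lysate.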

full length (FL) LXRβ = target: T3, full length (FL) LXRβ (Homo sapiens, UniProt P55055, DUP175-175); test: LXR Gal4 reporter transient transfection assay (FL-M2H Gal4β); assay type: cell-based; conditions: HEK293 cells, full length LXRβ; read-out: FL-M2H Gal4β (EC50 range)
T3 construct: the full length (FL) proteins of LXRα (amino acids 1-447); NP005684; NP009052; expressed in transfected cells; host or cells: HEK293
T3 sequence (P55055 with tags, fused parts or gaps DUP175-175): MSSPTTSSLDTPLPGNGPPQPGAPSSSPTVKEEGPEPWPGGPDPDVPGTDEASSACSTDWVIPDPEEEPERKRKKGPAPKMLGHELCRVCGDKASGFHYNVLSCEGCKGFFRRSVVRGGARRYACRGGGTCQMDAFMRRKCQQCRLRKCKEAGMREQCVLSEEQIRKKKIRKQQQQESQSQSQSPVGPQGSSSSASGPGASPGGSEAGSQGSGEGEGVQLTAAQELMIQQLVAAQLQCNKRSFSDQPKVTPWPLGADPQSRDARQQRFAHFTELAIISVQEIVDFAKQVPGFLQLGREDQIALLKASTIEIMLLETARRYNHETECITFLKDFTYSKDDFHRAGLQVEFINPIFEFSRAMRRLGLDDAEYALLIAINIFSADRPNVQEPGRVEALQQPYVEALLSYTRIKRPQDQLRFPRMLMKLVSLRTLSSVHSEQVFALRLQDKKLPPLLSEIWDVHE
Procedure, shortened: as §1

| Compound | EC50 [1] [nM] | EC50 (full length (FL) LXRα) [nM] | EC50 (full length (FL) LXRβ) [nM] |
| --- | --- | --- | --- |
| N#Cc1sccc1-c1c(-c2cccc(-c3ccc(C(=O)O)cc3Cl)c2)n(S(=O)(=O)c2ccc(Cl)cc2)c2ccc(F)cc12 [3/57] | 100 to 1000 | < 100 | < 100 |
| Cc1ccc(S(=O)(=O)n2c(-c3cccc(N4[C@@H]5CC[C@H]4C[C@@H](C(=O)O)C5)c3)c(-c3ccsc3C#N)c3cc(F)ccc32)cc1 [3/58] | 1000 to 10000 | < 100 | < 100 |
| N#Cc1sccc1-c1c(-c2cccc(N3CCC(C(=O)O)CC3)c2)n(S(=O)(=O)c2ccc(C(F)F)cc2)c2ccc(F)cc12 [3/60] | 100 to 1000 | < 100 | < 100 |
| O=C(O)c1ccc(-c2cccc(-c3c(-c4ccccc4C4(F)CNC4)c4cc(F)ccc4n3S(=O)(=O)c3ccc(C(F)F)cc3)c2)c(Cl)c1 [3/61] | 100 to 1000 | 100 to 1000 | 100 to 1000 |
| CN1CC(F)(c2ccccc2-c2c(-c3cccc(-c4ccc(C(=O)O)cc4Cl)c3)n(S(=O)(=O)c3ccc(C(F)F)cc3)c3ccc(F)cc23)C1 [3/62] | 100 to 1000 | 100 to 1000 | < 100 |
| O=C(O)c1ccc(-c2cccc(-c3c(-c4ccsc4C4COC4)c4cc(F)ccc4n3S(=O)(=O)c3ccc(C(F)F)cc3)c2)c(Cl)c1 [3/63] | < 100 | < 100 | < 100 |
| Cc1ccc(S(=O)(=O)n2c(-c3cccc(C4CC5(CC(C(=O)O)C5)C4)c3)c(-c3ccsc3C#N)c3cc(F)ccc32)cc1 (stereo not drawn) [3/65] | 100 to 1000 | < 100 | < 100 |
| CC1(C)CCN(S(=O)(=O)n2c(-c3cccc(-c4ccc(C(=O)O)cc4)c3)c(-c3ccsc3C#N)c3ccccc32)CC1 [3/66] | 1000 to 10000 | 100 to 1000 | 100 to 1000 |
| N#Cc1cccc(C#N)c1-c1c(-c2cccc(N3CC(C(=O)O)C3)c2)n(S(=O)(=O)c2ccc(C(F)F)cc2)c2ccc(F)cc12 [3/67] | 100 to 1000 | 100 to 1000 | 100 to 1000 |
| N#Cc1cccc(C#N)c1-c1c(-c2cccc(C3CC3C(=O)O)c2)n(S(=O)(=O)c2ccc(C(F)F)cc2)c2ccc(F)cc12 (stereo not drawn) [3/68] | 100 to 1000 | < 100 | < 100 |
| O=C(O)c1ccc(-c2cccc(-c3c(-c4cccc5oncc45)c4cc(F)ccc4n3S(=O)(=O)c3ccc(C(F)F)cc3)c2)c(Cl)c1 [3/69] | 100 to 1000 | 100 to 1000 | 100 to 1000 |
| N#Cc1cccc(C#N)c1-c1c(-c2cccc(-c3ccc(C(=O)O)cc3Cl)c2)n(S(=O)(=O)c2ccc(C(F)F)cc2)c2cnc(O)cc12 [3/70] | 100 to 1000 | 100 to 1000 | 100 to 1000 |
| N#Cc1cccc(C#N)c1-c1c(-c2cccc(-c3c(F)cc(OCC(=O)O)cc3F)c2)n(S(=O)(=O)c2ccc(C(F)F)cc2)c2ccc(F)cc12 [3/71] | < 100 | < 100 | < 100 |
| CC(O)(C(=O)O)c1cc(F)c(-c2cccc(-c3c(-c4c(C#N)cccc4C#N)c4cc(F)ccc4n3S(=O)(=O)c3ccc(C(F)F)cc3)c2)c(F)c1 (stereo not drawn) [3/72] | < 100 | < 100 | < 100 |
| Cc1ccc(S(=O)(=O)n2c(-c3cccc(C4CC4C(=O)O)c3)c(-c3ccsc3C#N)c3ccncc32)cc1 (stereo not drawn) [4/1] | 1000 to 10000 | 100 to 1000 | < 100 |
| Cc1ccc(S(=O)(=O)n2c(-c3cccc(C4CC4C(=O)O)c3)c(-c3ccsc3C#N)c3cccnc32)cc1 (stereo not drawn) [4/2] | 1000 to 10000 | 100 to 1000 | 100 to 1000 |
| Cc1ccc(S(=O)(=O)n2c(-c3cccc(N4CC(C(=O)O)C4)c3)c(-c3ccsc3C#N)c3sccc32)cc1 [4/3] | 1000 to 10000 | < 100 | < 100 |
| Cc1ccc(S(=O)(=O)n2c(-c3cccc(-c4ccc(CO)c(S(=O)(=O)CC(=O)O)c4)c3)c(-c3ccsc3C#N)c3ccccc32)cc1 [5/1] | 100 to 1000 | 1000 to 10000 | 100 to 1000 |
| Cc1ccc(S(=O)(=O)n2c(-c3cccc(C45CC(C(=O)O)(C4)C5)c3)c(-c3ccsc3C#N)c3ccccc32)cc1 [5/2] | 100 to 1000 | 100 to 1000 | 100 to 1000 |
| Cc1ccc(S(=O)(=O)n2c(-c3cccc(C#CC(C)(C)C(=O)O)c3)c(-c3ccsc3C#N)c3cc(F)ccc32)cc1 [5/4] | 1000 to 10000 | 100 to 1000 | < 100 |
| Cc1ccc(S(=O)(=O)n2c(-c3cccc(-n4ccc(C(=O)O)cc4=O)c3)c(-c3ccsc3C#N)c3cc(F)ccc32)cc1 [5/5] | 100 to 1000 | 100 to 1000 | 100 to 1000 |
| Cc1ccc(S(=O)(=O)n2c(-c3ccnc(-c4ccc(C(=O)O)cc4)c3)c(-c3ccsc3C#N)c3cc(F)ccc32)cc1 [5/6] | 100 to 1000 | < 100 | < 100 |
| N#Cc1sccc1-c1c(-c2cccc(N3CC(C(=O)O)C3)c2)n(S(=O)(=O)c2ccc(Cl)cc2)c2ccc(F)cc12 [5/7] | 100 to 1000 | 100 to 1000 | < 100 |
| COc1ccc(S(=O)(=O)n2c(-c3cccc(N4CC(C(=O)O)C4)c3)c(-c3ccsc3C#N)c3cc(F)ccc32)cn1 [5/8] | 100 to 1000 | 100 to 1000 | 100 to 1000 |
| Cc1ccc(S(=O)(=O)n2c(-c3cccc(N4CC[C@@H](C(=O)O)C[C@H]4C)c3)c(-c3ccsc3C#N)c3cc(F)ccc32)cc1 [5/9] | 100 to 1000 | 100 to 1000 | < 100 |
| O=C(O)c1ccc(-c2cccc(-c3c(-c4ncccc4N4CC(O)C4)c4cc(F)ccc4n3S(=O)(=O)c3ccc(C(F)F)cc3)c2)c(Cl)c1 [5/10] | 1000 to 10000 | 100 to 1000 | 100 to 1000 |
| N#Cc1sccc1-c1c(-c2cccc(C3CC3C(=O)NO)c2)n(S(=O)(=O)c2ccc(Cl)cc2)c2ccccc12 (stereo not drawn) [6/1] | 100 to 1000 | < 100 | < 100 |
| CC(C)(C)OC(=O)CNC(=O)c1ccc(-c2cccc(-c3c(-c4c(C#N)cccc4C#N)c4cc(F)ccc4n3S(=O)(=O)c3ccc(C(F)F)cc3)c2)c(Cl)c1 [6/3] | < 100 | < 100 | < 100 |
